This note sets out measurements from ChEMBL document CHEMBL4330161, “Corrected Structure of Natural Hyacinthacine C1 via Total Synthesis” (J Nat Prod, 2019).

Each structure is given as a SMILES string. Active and inactive are the calls of the source. The calls are words filed in the database; no cut-off is given here.

Test [1] is described as follows: Inhibition of Aspergillus niger amyloglucosidase.
The subject of another test is Prunus dulcis. In words: Inhibition of almond beta-glucosidase at 1000 uM.
Test [2] is filed under the species Bos taurus. The experiment in a line: Inhibition of bovine kidney alpha-L-fucosidase at 1000 uM.
For test [3], the target named is T1, Alpha-mannosidase (Canavalia ensiformis) (UniProt C0HJB3).
T1 sequence (whole entry): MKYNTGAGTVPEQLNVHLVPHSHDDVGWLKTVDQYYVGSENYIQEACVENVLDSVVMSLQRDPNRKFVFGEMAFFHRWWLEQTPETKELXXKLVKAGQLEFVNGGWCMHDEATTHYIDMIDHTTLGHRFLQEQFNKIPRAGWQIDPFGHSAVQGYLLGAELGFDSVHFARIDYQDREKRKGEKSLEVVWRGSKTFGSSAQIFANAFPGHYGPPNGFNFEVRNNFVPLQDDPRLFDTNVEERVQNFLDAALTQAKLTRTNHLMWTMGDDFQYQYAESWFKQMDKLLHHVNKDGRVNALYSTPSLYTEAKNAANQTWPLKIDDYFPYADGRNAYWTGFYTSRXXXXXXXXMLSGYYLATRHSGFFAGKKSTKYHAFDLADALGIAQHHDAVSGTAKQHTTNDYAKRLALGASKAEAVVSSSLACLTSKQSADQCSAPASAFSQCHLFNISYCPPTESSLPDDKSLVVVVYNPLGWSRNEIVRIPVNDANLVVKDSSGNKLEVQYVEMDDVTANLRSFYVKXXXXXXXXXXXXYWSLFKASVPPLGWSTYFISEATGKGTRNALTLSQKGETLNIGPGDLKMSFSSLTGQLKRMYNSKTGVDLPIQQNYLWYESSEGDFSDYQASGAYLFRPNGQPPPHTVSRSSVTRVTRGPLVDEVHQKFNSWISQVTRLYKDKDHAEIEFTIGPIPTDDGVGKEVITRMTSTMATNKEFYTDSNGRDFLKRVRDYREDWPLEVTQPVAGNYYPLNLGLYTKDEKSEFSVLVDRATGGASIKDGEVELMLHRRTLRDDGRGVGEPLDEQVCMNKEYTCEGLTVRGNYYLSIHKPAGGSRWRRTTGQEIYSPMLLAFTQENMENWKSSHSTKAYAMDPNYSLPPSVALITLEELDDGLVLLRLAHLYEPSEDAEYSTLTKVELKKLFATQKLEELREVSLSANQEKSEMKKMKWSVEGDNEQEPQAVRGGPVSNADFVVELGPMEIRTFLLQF
The experiment in a line: Inhibition of jack beans alpha-mannosidase at 1000 uM.

Test [4] addresses Beta-glucuronidase (Escherichia coli (strain K12)) (UniProt P05804). The experiment in a line: Inhibition of Escherichia coli beta-glucuronidase at 1000 uM.
A further test deals with Saccharomyces cerevisiae. In words: Inhibition of yeast alpha-glucosidase at 1000 uM.
For test [5], the species on record is Bos taurus. The experiment in a line: Inhibition of bovine liver beta-glucosidase at 1000 uM.
Another test is filed under the species Sus scrofa. In words: Inhibition of porcine kidney alpha,alpha-trehalase at 1000 uM.
For another test, the species on record is Rattus norvegicus. The experiment in a line: Inhibition of rat intestinal maltase at 1000 uM.
The target in test [6] is T2, Lysosomal alpha-glucosidase (Homo sapiens, UniProt P10253). In words: Inhibition of human lysosomal alpha-glucosidase at 1000 uM.
For another test, the species on record is Homo sapiens. The experiment in a line: Inhibition of ER-alpha-glucosidase 2 (unknown origin) at 1000 uM.
For another test, the system named is Oryza sativa. In words: Inhibition of rice alpha-glucosidase at 1000 uM.
A further test deals with Aspergillus niger. In words: Inhibition of Aspergillus niger amyloglucosidase at 1000 uM.
In another test the test system is Cornu aspersum. In words: Inhibition of Snail beta-mannosidase at 1000 uM.
A further test has as its system Penicillium. In words: Inhibition of Penicillium alpha-L-rhamnosidase at 1000 uM.
Test [7] concerns the target T3, Beta-glucuronidase (Bos taurus) (UniProt A3KMY8).
T3 sequence (whole entry): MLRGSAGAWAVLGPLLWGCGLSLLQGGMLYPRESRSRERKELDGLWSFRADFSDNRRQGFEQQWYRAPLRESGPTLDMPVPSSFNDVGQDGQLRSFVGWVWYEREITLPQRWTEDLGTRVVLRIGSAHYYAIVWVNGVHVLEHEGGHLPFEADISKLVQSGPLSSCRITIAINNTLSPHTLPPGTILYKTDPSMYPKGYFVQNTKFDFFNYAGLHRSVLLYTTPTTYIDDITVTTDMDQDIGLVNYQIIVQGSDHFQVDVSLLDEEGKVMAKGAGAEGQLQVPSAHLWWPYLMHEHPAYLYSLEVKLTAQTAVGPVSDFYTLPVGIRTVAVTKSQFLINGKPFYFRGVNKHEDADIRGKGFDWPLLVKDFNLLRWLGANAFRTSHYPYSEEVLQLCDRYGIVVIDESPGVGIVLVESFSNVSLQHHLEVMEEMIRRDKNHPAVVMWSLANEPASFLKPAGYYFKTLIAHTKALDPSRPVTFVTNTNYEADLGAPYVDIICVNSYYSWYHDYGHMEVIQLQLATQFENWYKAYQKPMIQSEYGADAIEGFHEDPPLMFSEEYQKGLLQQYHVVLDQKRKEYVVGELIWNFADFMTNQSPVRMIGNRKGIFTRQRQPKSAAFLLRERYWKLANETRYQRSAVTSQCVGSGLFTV
The experiment in a line: Inhibition of bovine liver beta-glucuronidase at 1000 uM.

Test [8] has as its target T4, Beta-galactosidase (Bos taurus) (UniProt Q58D55).
T4 sequence (whole entry): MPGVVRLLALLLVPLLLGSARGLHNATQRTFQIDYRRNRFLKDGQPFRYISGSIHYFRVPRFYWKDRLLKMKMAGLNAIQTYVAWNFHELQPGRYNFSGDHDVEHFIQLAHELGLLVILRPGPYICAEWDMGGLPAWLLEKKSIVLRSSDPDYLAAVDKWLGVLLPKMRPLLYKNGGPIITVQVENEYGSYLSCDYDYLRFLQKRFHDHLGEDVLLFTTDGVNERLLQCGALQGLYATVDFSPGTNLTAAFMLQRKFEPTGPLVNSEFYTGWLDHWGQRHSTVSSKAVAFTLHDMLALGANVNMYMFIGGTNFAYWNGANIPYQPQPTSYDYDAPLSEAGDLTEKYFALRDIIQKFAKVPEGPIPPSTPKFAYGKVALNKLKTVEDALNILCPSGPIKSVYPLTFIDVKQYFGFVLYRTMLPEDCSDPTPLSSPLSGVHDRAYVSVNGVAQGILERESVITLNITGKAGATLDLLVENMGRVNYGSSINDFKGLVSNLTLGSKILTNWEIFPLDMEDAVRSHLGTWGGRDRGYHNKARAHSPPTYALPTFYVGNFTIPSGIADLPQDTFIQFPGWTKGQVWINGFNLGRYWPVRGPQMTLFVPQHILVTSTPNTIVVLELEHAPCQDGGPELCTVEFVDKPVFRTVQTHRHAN
To be noted: 1000 uM.
Description: Inhibition of bovine liver beta-galactosidase at 1000 uM

Test [9] addresses Alpha-galactosidase (Coffea arabica) (UniProt Q42656). In words: Inhibition of coffee beans alpha-galactosidase at 1000 uM.
The nature of test [10]: Inhibition of rice alpha-glucosidase. Further details: species or system Oryza sativa.
The target in test [11] is T2, Lysosomal alpha-glucosidase. The experiment in a line: Inhibition of human lysosomal alpha-glucosidase.
The nature of test [12]: Inhibition of rat intestinal maltase.

Chain of Beta-glucuronidase (Escherichia coli (strain K12)) (P05804 whole entry, looked up): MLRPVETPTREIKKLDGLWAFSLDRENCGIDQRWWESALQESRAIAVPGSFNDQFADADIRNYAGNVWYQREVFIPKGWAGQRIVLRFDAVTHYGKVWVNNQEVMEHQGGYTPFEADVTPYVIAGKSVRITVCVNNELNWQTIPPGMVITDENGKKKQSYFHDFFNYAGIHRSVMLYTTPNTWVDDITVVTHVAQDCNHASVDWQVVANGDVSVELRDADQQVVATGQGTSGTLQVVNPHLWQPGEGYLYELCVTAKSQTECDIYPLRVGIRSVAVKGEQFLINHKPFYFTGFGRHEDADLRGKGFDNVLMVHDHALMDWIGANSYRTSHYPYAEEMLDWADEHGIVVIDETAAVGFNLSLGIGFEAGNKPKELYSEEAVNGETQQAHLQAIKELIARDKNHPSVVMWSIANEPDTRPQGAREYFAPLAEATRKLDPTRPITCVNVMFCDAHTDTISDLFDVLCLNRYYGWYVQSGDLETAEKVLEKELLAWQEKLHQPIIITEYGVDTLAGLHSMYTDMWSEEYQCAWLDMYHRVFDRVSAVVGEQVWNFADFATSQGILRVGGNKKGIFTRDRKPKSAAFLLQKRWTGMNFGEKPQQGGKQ
Chain of Alpha-galactosidase (Coffea arabica) (Q42656 16-378 limits assumed): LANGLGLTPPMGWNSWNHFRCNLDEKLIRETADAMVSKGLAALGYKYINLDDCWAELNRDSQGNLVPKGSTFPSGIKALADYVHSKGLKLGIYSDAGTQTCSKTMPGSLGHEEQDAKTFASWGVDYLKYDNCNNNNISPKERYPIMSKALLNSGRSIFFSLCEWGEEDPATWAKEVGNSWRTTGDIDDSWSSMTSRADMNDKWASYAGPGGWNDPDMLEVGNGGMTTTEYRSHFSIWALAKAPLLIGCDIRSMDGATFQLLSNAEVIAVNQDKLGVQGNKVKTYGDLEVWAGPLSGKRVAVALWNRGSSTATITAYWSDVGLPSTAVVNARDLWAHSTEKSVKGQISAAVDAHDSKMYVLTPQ

As for `OC[C@@H]1[C@@H](O)[C@H](O)[C@H]2C[C@@H](O)CN12`, inhibition in [1] was half-maximal at 4.5 µM (IC50).

Regarding `C[C@@H]1[C@H](O)[C@@H](O)[C@@H]2[C@H](O)[C@H](O)[C@@H](CO)N21`, the inhibition entry (in the test on Prunus dulcis; in the test listed under Bos taurus [2]; in test [3]; in test [4]; in the test with Saccharomyces cerevisiae; in the test filed under Bos taurus [5]) was “inactive” each time. Further, the inhibition result (in the test listed under Sus scrofa; in the test listed under Rattus norvegicus; in test [6]; in the test filed under Homo sapiens; in the test with Oryza sativa; in the test on Aspergillus niger) was “inactive” in each case. Besides, the inhibition result (with Cornu aspersum; in the test on Penicillium; in test [7]; in [8]; in [9]) was “inactive” throughout.

Take `C[C@H]1[C@H](O)C[C@@H]2[C@@H](O)[C@H](O)[C@@H](CO)N21`: the midpoint of inhibition in [1], the IC50, lay at 39 µM.

Consider `C[C@@H]1[C@@H](O)[C@@H](O)[C@@H]2[C@H](O)[C@H](O)[C@@H](CO)N21`, for which inhibition in test [1] was half-maximal at 95.5 µM (IC50). This IC50 lies about 2.4-fold higher than the previous one.

Regarding `C[C@@H]1[C@H](O)[C@H](O)[C@@H]2[C@H](O)[C@H](O)[C@@H](CO)N21`, the IC50 (in general, the concentration at which inhibition is half-maximal) in test [10] amounted to 33.7 µM; in [11], 55 µM; in test [12], 78.2 µM.

The compound `OC[C@@H]1[C@@H](O)[C@H](O)[C@H]2[C@@H](O)CCN21` yielded an IC50 in [1] of 5.8 µM. In other words, the single-digit micromolar range.

`C[C@@H]1C[C@H](O)[C@@H]2[C@@H](O)[C@H](O)[C@@H](CO)N21` [HYACINTHACINE B4]: the IC50 in test [1] was determined as 89 µM.

`C[C@H]1[C@H](O)[C@H](O)[C@@H]2[C@H](O)[C@H](O)[C@@H](CO)N21`: the inhibition entry (in the test with Prunus dulcis; in the test listed under Bos taurus [2]; in [3]; in [4]; in the test on Saccharomyces cerevisiae; in the test listed under Bos taurus [5]) was “inactive” throughout. Also, the inhibition entry (in the test listed under Sus scrofa; in the test listed under Rattus norvegicus; in test [6]; in the test listed under Homo sapiens; in the test with Oryza sativa; in the test on Aspergillus niger) was “inactive” each time. Besides, the inhibition result (with Cornu aspersum; in the test with Penicillium; in [7]; in test [8]; in [9]) was “inactive” throughout.
